Oligonucleotides are written 5' to 3', each unit as a sugar letter and its base; * is a phosphorothioate linkage, no mark a phosphodiester; rarer units and linkages stand in square brackets, end groups in braces. Plain capitals give the bases only. e = 2'-O-(2-methoxyethyl) (MOE); [5mC] = 5-methylcytosine
Experiments:
SMA mice = experiment: Righting reflex test of P7 SMA mice; type: in vivo, mouse; conditions: for righting reflex delay (in words): untreated mutant ~45 seconds
Experimental: Scramble (Ctrl) (n=12, 40 trials), VPA (n=13, 50 trials), ASO1 (n=11, 50 trials), ASO1 + VPA (n=17, 68 trials), and untreated heterozygotes (n=12, 36 trials). […] In the righting-reflex test, the time it took a mouse to right itself on its back on a flat surface was measured.
To complement the survival and weight-gain data, two noninvasive neuromuscular function tests, appropriate for mouse pups, were performed. In the righting reflex test, the time it takes a mouse to right itself when placed on its back on a flat surface was measured (Feather-Schussler et al., 2016).

[1] = test system: H3K9me2 on merged SMN1 and SMN2 genes; experiment: Genome-wide ChIP-seq analysis of H3K9me2 mark deposition in HEK293T cells; type: cell-based, human
Experimental: The effects of ASO1 and/or VPA on the deployment of the H3K9me2 mark throughout the genome by using ChIP-seq were analyzed.

[2] = test system: H3K9Ac along the SMN2 gene; experiment: ChIP-qPCR of H3K9Ac distribution along the SMN2 gene in HEK293T cells; type: cell-based, human; conditions: 10 mM VPA 12 hr or ASO1 transfection
Experimental: Four independent immunoprecipitation replicates were conducted per experiment. Data are represented as mean ± S.D. (n = 4, *p < 0.05, two-tailed Student's t test). […] Top: control Western blot for efficient expression of the c-Myc-SMN fusion protein encoded by plasmid […], cat.# 71687) using anti-tubulin (tub.) as loading control. Bottom: […] Distribution of these histone marks was assessed by ChIP-qPCR, with amplicons mapping near the numbered exons (E) and introns (i). Three independent immunoprecipitation replicates were conducted per experiment. Data are represented as mean ± S.D. (n = 5; in all cases p was much higher than 0.05, two-tailed Student's t test). […] Top: control Western blot for efficient expression of the […] fusion protein encoded by plasmid pEGFP-RNASEH1 (Addgene, cat.# 108699), using anti-actin (act.) as loading control. Bottom: […] Top: control Western blot for efficient AGO1 knockdown using anti-tubulin (tub.) as loading control. Bottom: […] RT-PCR conditions for FIGS. 10A, 10C and 10D were as in FIGS. 1A-1G . Approximately 2×10^6 HEK293T cells per sample were treated for 10 min in 1% (v/v) formaldehyde at room temperature to crosslink protein-DNA complexes. Crosslinking was stopped with glycine at a final concentration of 125 mM. […]

Molecule	righting reflex delay (in words) (SMA mice)	reverting effect of VPA on SMN1/2 compared with control genes ([1]; ASO1+VPA/control+VPA, 11,738 protein-coding genes)	decrease of H3K9me2 methylation mark ([1]; HEK293T treated with VPA, merged SMN1 and SMN2 genes) [%]	H3K9 acetylation along the SMN2 gene [2]	righting reflex, time to right (SMA mice)	share of control-set genes with lower ASO1/control fold enrichment than SMN1/2 ([1]; 11,738 protein-coding genes as reference)	enrichment of H3K9me2 ChIP-seq reads compared with the control ([1]; HEK293T, merged SMN1 and SMN2 genes) [%]
CCCC(CCC)C(=O)O [VPA, valproic acid]	not significantly changed	higher than for the majority of the control genes	67	promoted intragenic H3K9 acetylation			
ASO1: 5′-ATTCACTTTCATAATGCTGG-3′ 2′-O-methoxyethyl-modified oligonucleotide with phosphorothioate backbone and all 5-methyl cytosines; nusinersen variant with 2-nucleotide extension (antisense eA*eT*eT*e[5mC]*eA*e[5mC]*eT*eT*eT*e[5mC]*eA*eT*eA*eA*eT*eG*e[5mC]*eT*eG*eG)	greatly reduced			not affected	~ 10 seconds	~ 91 % of the genes in the control set	44

Reference: US20230302036A1, “COMPOSITIONS FOR TREATMENT OF SPINAL MUSCULAR ATROPHY” (priority 2020, published 2023)
